This assay deals with T1, IRAK4 (Homo sapiens, UniProt Q9NWZ3).
T1 sequence (Q9NWZ3 1-460): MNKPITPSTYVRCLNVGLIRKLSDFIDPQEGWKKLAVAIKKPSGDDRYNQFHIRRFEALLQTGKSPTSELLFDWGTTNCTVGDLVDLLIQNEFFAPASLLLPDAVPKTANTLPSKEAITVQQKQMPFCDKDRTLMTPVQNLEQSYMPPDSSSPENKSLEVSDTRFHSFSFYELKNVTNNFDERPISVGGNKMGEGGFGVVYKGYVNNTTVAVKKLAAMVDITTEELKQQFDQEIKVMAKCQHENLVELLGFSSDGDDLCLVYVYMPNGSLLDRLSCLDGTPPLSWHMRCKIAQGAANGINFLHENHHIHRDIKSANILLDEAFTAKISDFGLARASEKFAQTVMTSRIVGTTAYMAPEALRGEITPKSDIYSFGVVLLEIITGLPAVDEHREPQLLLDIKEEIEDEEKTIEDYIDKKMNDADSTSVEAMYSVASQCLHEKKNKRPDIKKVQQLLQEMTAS
The assay is described as follows: Degradation of IRAK4 in THP1 cells, Western blot. Type of assay: cell-based. On the set-up: Degradation of IRAK4 in THP1 by compound; host or cells: THP-1. The conditions noted are these: THP-1 cells, 24 hours of incubation; for DC50: IRAK4 protein by Western blot, read-out: DC50; for Dmax: maximum degradation rate, read-out: Dmax. In a few lines:
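THP1 cells treated 24 h, lysed; lysates normalised by BCA, 40 μg protein per lane on 10% SDS-PAGE, anti-IRAK4 Western blot with chemiluminescence detection.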

Where a name gives a salt, the structure may show the parent alone.

In the case of `NC(=O)c1nn(-c2ccc(N3CCN(C(=O)C4CCN(c5cc(F)c(C6CCC(=O)NC6=O)c(F)c5)C4)CC3)cc2)cc1NC(=O)c1cccc(C(F)(F)F)n1` (stereo not drawn) [Compound A414], the DC50 (usually the concentration giving 50% degradation) is below 0.1 µM and the Dmax (usually the greatest extent of degradation seen) is above 60%.
The like results for `NC(=O)c1nn(-c2ccc(N3CCN(C(=O)C4CCN(c5ccc(OC6CCC(=O)NC6=O)cn5)CC4)CC3)cc2)cc1NC(=O)c1cccc(C(F)(F)F)n1` (stereo not drawn) [Compound A415, N-(3-Carbamoyl-1-(4-(4-(1-(5-((2,6-dioxopiperidin-3-yl)oxy)pyridin-2-yl)piperidine-4-carbonyl)piperazin-1-yl)phenyl)-1H-pyrazol-4-yl)-6-(trifluoromethyl)picolinamide] were, in that order, below 0.1 µM and above 60%.
The matching figures for `NC(=O)c1nn(-c2ccc(N3CCN(CC4CCN(c5ccc(OC6CCC(=O)NC6=O)cc5F)CC4)CC3)cc2)cc1NC(=O)c1cccc(C(F)(F)F)n1` (stereo not drawn) [Compound A421, N-(3-Carbamoyl-1-(4-(4-((1-(4-((2,6-dioxopiperidin-3-yl)oxy)-2-fluorophenyl)piperidin-4-yl)methyl)piperazin-1-yl)phenyl)-1H-pyrazol-4-yl)-6-(trifluoromethyl)picolinamide]: below 0.1 µM and above 60%.
The like results for `NC(=O)c1nn(-c2ccc(N3CCN(C4CCN(c5ccc(C(=O)NC6CCC(=O)NC6=O)c(F)c5)CC4)CC3)cc2)cc1NC(=O)c1cccc(C(F)(F)F)n1` (stereo not drawn) [Compound A422, N-(3-Carbamoyl-1-(4-(4-(1-(4-((2,6-dioxopiperidin-3-yl)carbamoyl)-3-fluorophenyl)piperidin-4-yl)piperazin-1-yl)phenyl)-1H-pyrazol-4-yl)-6-(trifluoromethyl)picolinamide] were, in that order, below 0.1 µM and above 60%.
On to `COc1cc(NC2CCC(=O)NC2=O)ccc1N1CCC(CN2CCN(c3ccc(-n4cc(NC(=O)c5cccc(C(F)(F)F)n5)c(C(N)=O)n4)cc3)CC2)CC1` (stereo not drawn) [Compound A423, N-(3-Carbamoyl-1-(4-(4-((1-(4-((2,6-dioxopiperidin-3-yl)amino)-2-methoxyphenyl)piperidin-4-yl)methyl)piperazin-1-yl)phenyl)-1H-pyrazol-4-yl)-6-(trifluoromethyl)picolinamide], for which the DC50 lay in the range of 0.1 to 1 µM and the Dmax is above 60%.
The matching figures for `COc1cc(NC2CCC(=O)NC2=O)ccc1N1CCC(N2CCN(c3ccc(-n4cc(NC(=O)c5cccc(C(F)(F)F)n5)c(C(N)=O)n4)cc3)CC2)CC1` (stereo not drawn) [Compound A425, N-(3-Carbamoyl-1-(4-(4-(1-(4-((2,6-dioxopiperidin-3-yl)amino)-2-methoxyphenyl)piperidin-4-yl)piperazin-1-yl)phenyl)-1H-pyrazol-4-yl)-6-(trifluoromethyl)picolinamide]: below 0.1 µM and above 60%.
The like results for `NC(=O)c1cn(-c2ccc(N3CCN(CC4CCN(c5ccc(NC6CCC(=O)NC6=O)cc5F)CC4)CC3)cc2)cc1NC(=O)c1cccc(C(F)(F)F)n1` (stereo not drawn) [Compound A427, N-(4-Carbamoyl-1-(4-(4-((1-(4-((2,6-Dioxopiperidin-3-yl)amino)-2-fluorophenyl)piperidin-4-yl)methyl)piperazin-1-yl)phenyl)-1H-pyrrol-3-yl)-6-(trifluoromethyl)picolinamide] were, in that order, below 0.1 µM and above 60%.
The matching figures for `NC(=O)c1cn(-c2ccc(N3CCN(C4CCN(c5ccc(NC6CCC(=O)NC6=O)cc5F)CC4)CC3)cc2)cc1NC(=O)c1cccc(C(F)(F)F)n1` (stereo not drawn) [Compound A428, N-(4-Carbamoyl-1-(4-(4-(1-(4-((2,6-Dioxopiperidin-3-yl)amino)-2-fluorophenyl)piperidin-4-yl)piperazin-1-yl)phenyl)-1H-pyrrol-3-yl)-6-(trifluoromethyl)picolinamide]: below 0.1 µM and above 60%.
Regarding `NC(=O)c1nn(-c2ccc(N3CCN(C4CCN(c5ccc(OC6CCC(=O)NC6=O)cc5F)CC4)CC3)cc2)cc1NC(=O)c1cccc(C(F)(F)F)n1` (stereo not drawn) [Compound A430, N-(3-Carbamoyl-1-(4-(4-(1-(4-((2,6-dioxopiperidin-3-yl)oxy)-2-fluorophenyl)piperidin-4-yl)piperazin-1-yl)phenyl)-1H-pyrazol-4-yl)-6-(trifluoromethyl)picolinamide], the DC50 was below 0.1 µM and the Dmax is above 60%.
The like results for `NC(=O)c1nn(-c2ccc(N3CCN(C4CCN(c5ccc(NC6CCC(=O)NC6=O)cn5)CC4)CC3)cc2)cc1NC(=O)c1cccc(C(F)(F)F)n1` (stereo not drawn) [Compound A432, N-(3-Carbamoyl-1-(4-(4-(1-(5-((2,6-Dioxopiperidin-3-yl)amino)pyridin-2-yl)piperidin-4-yl)piperazin-1-yl)phenyl)-1H-pyrazol-4-yl)-6-(trifluoromethyl)picolinamide] were, in that order, 0.1 to 1 µM and 40 to 60%.
The matching figures for `NC(=O)c1nn(-c2ccc(N3CCN(C4CCN(c5ccc(C(=O)NC6CCC(=O)NC6=O)cn5)CC4)CC3)cc2)cc1NC(=O)c1cccc(C(F)(F)F)n1` (stereo not drawn) [Compound A433, N-(3-Carbamoyl-1-(4-(4-(1-(5-((2,6-dioxopiperidin-3-yl)carbamoyl)pyridin-2-yl)piperidin-4-yl)piperazin-1-yl)phenyl)-1H-pyrazol-4-yl)-6-(trifluoromethyl)picolinamide]: 0.1 to 1 µM and 40 to 60%.
The matching figures for `CC(C)(O)c1nn(-c2ccc(N3CCN(CC4CCN(c5ccc(NC6CCC(=O)NC6=O)cc5F)CC4)CC3)cc2)cc1NC(=O)c1cccc(C(F)(F)F)n1` (stereo not drawn) [Compound A434, N-(1-(4-(4-((1-(4-((2,6-Dioxopiperidin-3-yl)amino)-2-fluorophenyl)piperidin-4-yl)methyl)piperazin-1-yl)phenyl)-3-(2-hydroxypropan-2-yl)-1H-pyrazol-4-yl)-6-(trifluoromethyl)picolinamide]: below 0.1 µM and above 60%.
As for `CC(C)(O)c1nn(-c2ccc(N3CCN(CC4CCN(c5ccc(OC6CCC(=O)NC6=O)cn5)CC4)CC3)cc2)cc1NC(=O)c1cccc(C(F)(F)F)n1` (stereo not drawn) [Compound A437], the DC50 is below 0.1 µM and the Dmax was above 60%.
The like results for `CC(C)(O)c1nn(-c2ccc(N3CCN(CC4CCN(c5ccc(NC6CCC(=O)NC6=O)cn5)CC4)CC3)cc2)cc1NC(=O)c1cccc(C(F)(F)F)n1` (stereo not drawn) [Compound A438, N-(1-(4-(4-((1-(5-((2,6-Dioxopiperidin-3-yl)amino)pyridin-2-yl)piperidin-4-yl)methyl)piperazin-1-yl)phenyl)-3-(2-hydroxypropan-2-yl)-1H-pyrazol-4-yl)-6-(trifluoromethyl)picolinamide formate] were, in that order, below 0.1 µM and above 60%.
The like results for `CC(C)(O)c1nn(-c2ccc(N3CCN(C4CCN(c5ccc(NC6CCC(=O)NC6=O)cc5F)CC4)CC3)cc2)cc1NC(=O)c1cccc(C(F)(F)F)n1` (stereo not drawn) [Compound A439, N-(1-(4-(4-(1-(-4-((2,6-Dioxopiperidin-3-yl)amino)-2-fluorophenyl)piperidin-4-yl)piperazin-1-yl)phenyl)-3-(2-hydroxypropan-2-yl)-1H-pyrazol-4-yl)-6-(trifluoromethyl)picolinamide] were, in that order, below 0.1 µM and above 60%.

The record behind these values is patent publication EP4763839A1 (Pamplona Therapeutics (Shenzhen) Co., Ltd., priority 2023, dated 2025).
